Earlier results on one compound are cited in patent US9504662B2, “Composition for skin improvement comprising hexamidines and retinoids” (AMOREPACIFIC CORPORATION, priority 2009, dated 2016).

The conditions of the series: 4 μM of retinol vs 100 nM of Isotretinoin; general statement, no method given.

Take `CC1=C(/C=C/C(C)=C/C=C/C(C)=C/CO)C(C)(C)CCC1` [retinol]: the sebum-inhibiting effect entry is recorded as “substantially has the same degree of sebum-inhibiting effect as 100 nM of Isotretinoin”.
